Common to all, as to type: in vivo
The test system of assay [1] is Lolium perenne (LOLPE). The assay is described as follows: Post-emergence herbicidal activity, glasshouse pot test. To be noted: Lolium perenne, 312 h, rate 250 g/ha, evaluated after 13 days, glasshouse, read-out: Post-emergence activity LOLPE (100=total damage to plant; 0=no damage to plant). How it is done:
(§1) Seeds of a variety of test species were sown in standard soil in pots. After cultivation for one day (pre-emergence) or after 8 days cultivation (post-emergence) under controlled conditions in a glasshouse (at 24/16° C., day/night; 14 hours light; 65% humidity), the plants were sprayed with an aqueous spray solution derived from the formulation of the technical active ingredient in acetone/water (50:50) solution containing 0.5% Tween 20 (polyoxyethelyene sorbitan monolaurate, CAS RN 9005-64-5). The test plants were then grown in a glasshouse under controlled conditions in a glasshouse (at 24/16° C., day/night; 14 hours light; 65% humidity) and watered twice daily. After 13 days for pre and post-emergence, the test was evaluated (100=total damage to plant; 0=no damage to plant).
(§2) Lolium perenne (LOLPE), Alopecurus myosuroides (ALOMY), Echinochloa crus-galli (ECHCG), and Avena fatua (AVEFA).

For assay [2], the system named is Alopecurus myosuroides (ALOMY). Described as above. The note with it: Alopecurus myosuroides, 312 h, rate 250 g/ha, evaluated after 13 days, glasshouse, read-out: Post-emergence activity ALOMY (100=total damage to plant; 0=no damage to plant). How it is done: as §1, §2
The test system of assay [3] is Avena fatua (AVEFA). The description is as above. To be noted: Avena fatua, 312 h, rate 250 g/ha, evaluated after 13 days, glasshouse, read-out: Post-emergence activity AVEFA (100=total damage to plant; 0=no damage to plant). How it is done: as §1, §2
The test system of assay [4] is Echinochloa crus-galli (ECHCG). The description is as above. To be noted: Echinochloa crus-galli, 312 h, rate 250 g/ha, evaluated after 13 days, glasshouse, read-out: Post-emergence activity ECHCG (100=total damage to plant; 0=no damage to plant). How it is done:
as §1, §2

The subject of assay [5] is Lolium perenne (LOLPE). The assay is described as follows: Pre-emergence herbicidal activity, glasshouse pot test. The note with it: Lolium perenne, 312 h; Rate 250 g/ha; pre-emergence spray; evaluated after 13 days; read-out: Pre-emergence activity LOLPE (100=total damage to plant; 0=no damage to plant). How it is done: as §1, §2
Assay [6] concerns Alopecurus myosuroides (ALOMY). The description is as above. To be noted: Alopecurus myosuroides, 312 h; Rate 250 g/ha; pre-emergence spray; evaluated after 13 days; read-out: Pre-emergence activity ALOMY (100=total damage to plant; 0=no damage to plant). How it is done: as §1, §2
Assay [7] has as its system Avena fatua (AVEFA). Described as above. The note with it: Avena fatua, 312 h; Rate 250 g/ha; pre-emergence spray; evaluated after 13 days; read-out: Pre-emergence activity AVEFA (100=total damage to plant; 0=no damage to plant). How it is done:
as §1, §2

The test system of assay [8] is Echinochloa crus-galli (ECHCG). The assay is described as above. The note with it: Echinochloa crus-galli, 312 h; Rate 250 g/ha; pre-emergence spray; evaluated after 13 days; read-out: Pre-emergence activity ECHCG (100=total damage to plant; 0=no damage to plant). How it is done:
as §1, §2

For the compound `CCc1ccc(Oc2nc(C)c(Cl)c(N)n2)cc1C1=C(O)C(C)(C)OC(C)(C)C1=O` [Example A-81], the pest or weed control at 250 g/ha amounted to 30% in the assay on Lolium perenne (LOLPE) [1]; 50% in assay [2]; 50% in the assay with Avena fatua (AVEFA) [3]; 70% in assay [4]; 40% in the assay on Lolium perenne (LOLPE) [5]; 30% in assay [6]. In addition, the pest or weed control at 250 g/ha in the assay on Avena fatua (AVEFA) [7] was 10%; in assay [8], 90%.

Take `CCc1ccc(Oc2ccc(Cl)cc2F)cc1C1=C(O)[C@H]2CC[C@H](C2)C1=O` (single isomer, unassigned) [Example A-89]: the pest or weed control at 250 g/ha was determined as 60% in the assay on Lolium perenne (LOLPE) [1]; 90% in assay [2]; 90% in the assay on Avena fatua (AVEFA) [3]; 100% in assay [4]; 100% with Lolium perenne (LOLPE) [5]; 80% in assay [6]. Further, the pest or weed control at 250 g/ha with Avena fatua (AVEFA) [7] is 80%; in assay [8], 100%.

On to `CCc1ccc(Oc2nc3ccc(OC(F)(F)F)cc3s2)cc1C1=C(O)C(C)(C)OC(C)(C)C1=O` [Example A-218], for which the pest or weed control at 250 g/ha with Lolium perenne (LOLPE) [1] worked out at 80%; in assay [2] it was 70%; in the assay with Avena fatua (AVEFA) [3], 100%; in assay [4], 100%; in the assay on Lolium perenne (LOLPE) [5] it was 20%; in assay [6] it was 20%. In addition, the pest or weed control at 250 g/ha was 10% in the assay on Avena fatua (AVEFA) [7] and 50% in assay [8].

As for `CCc1ccc(Oc2ccc(C#N)c(Cl)c2)cc1C1=C(O)[C@H]2CC[C@H](C2)C1=O` [Example A-330], the pest or weed control at 250 g/ha in the assay on Lolium perenne (LOLPE) [1] was determined as 70%; in assay [2] it was 70%; with Avena fatua (AVEFA) [3], 80%; in assay [4] it was 100%; in the assay on Lolium perenne (LOLPE) [5], 100%; in assay [6], 80%. Also, the values for the pest or weed control at 250 g/ha (with Avena fatua (AVEFA) [7]; in assay [8]) were 80% and 100%, respectively.

With `CCc1ccc(Oc2ccc(Cl)cc2F)cc1C1=C(O)CCCC1=O` [Example A-38], the pest or weed control at 250 g/ha with Lolium perenne (LOLPE) [1] is 30%; in assay [2] it was 20%; in the assay on Avena fatua (AVEFA) [3], 30%; in assay [4] it was 80%; in the assay on Lolium perenne (LOLPE) [5], 70%; in assay [6], 50%. Besides, the results for the pest or weed control at 250 g/ha (with Avena fatua (AVEFA) [7]; in assay [8]) were 10% and 70%, respectively.

As to `CCc1ccc(Oc2cccc(Br)c2)cc1C1=C(O)[C@H]2CC[C@H](C2)C1=O` [Example A-245], the pest or weed control at 250 g/ha was determined as 20% in the assay with Lolium perenne (LOLPE) [1]; 0% in assay [2]; 10% with Avena fatua (AVEFA) [3]; 80% in assay [4]; 50% in the assay on Lolium perenne (LOLPE) [5]; 0% in assay [6]. The figures for the pest or weed control at 250 g/ha (with Avena fatua (AVEFA) [7]; in assay [8]) were 0% and 80%, respectively.

With `CCc1ccc(Oc2ccc(Cl)cc2)cc1C1=C(O)CCCC1=O` [Example A-27], the pest or weed control at 250 g/ha in the assay with Lolium perenne (LOLPE) [1] stood at 30%; in assay [2], 30%; in the assay with Avena fatua (AVEFA) [3] it was 40%; in assay [4] it was 90%; with Lolium perenne (LOLPE) [5], 60%; in assay [6] it was 40%. Also, the pest or weed control at 250 g/ha worked out at 60% in the assay with Avena fatua (AVEFA) [7] and 100% in assay [8].

On to `CCc1ccc(Oc2ccc(Cl)cc2)cc1C1=C(O)[C@H]2CC[C@H](C2)C1=O` (single isomer, unassigned) [Example A-88], for which the pest or weed control at 250 g/ha in the assay with Lolium perenne (LOLPE) [1] was found to be 50%; in assay [2], 70%; with Avena fatua (AVEFA) [3], 70%; in assay [4], 90%; in the assay on Lolium perenne (LOLPE) [5], 100%; in assay [6], 80%. The pest or weed control at 250 g/ha in the assay on Avena fatua (AVEFA) [7] stood at 60%; in assay [8], 100%.

As for `CCc1ccc(Oc2ccc([N+](=O)[O-])cc2C(F)(F)F)cc1C1=C(O)CC2(CCOCC2)CC1=O` [Example A-309], the pest or weed control at 250 g/ha was 50% with Lolium perenne (LOLPE) [1]; 50% in assay [2]; 70% in the assay with Avena fatua (AVEFA) [3]; 100% in assay [4]; 20% in the assay on Lolium perenne (LOLPE) [5]; 40% in assay [6]. The pest or weed control at 250 g/ha in the assay on Avena fatua (AVEFA) [7] was 0%; in assay [8], 70%.

For the compound `CCc1ccc(Oc2ccc(C#N)cc2Cl)cc1C1=C(O)C(C)(C)OC(C)(C)C1=O` [Example A-73], the pest or weed control at 250 g/ha in the assay with Lolium perenne (LOLPE) [1] worked out at 70%; in assay [2] it was 90%; in the assay with Avena fatua (AVEFA) [3], 40%; in assay [4] it was 100%; in the assay with Lolium perenne (LOLPE) [5] it was 80%; in assay [6], 90%. Also, the values for the pest or weed control at 250 g/ha (with Avena fatua (AVEFA) [7]; in assay [8]) were 80% and 100%, respectively.

For the compound `CCc1ccc(Oc2cc(C(F)(F)F)cc(Cl)n2)cc1C1=C(O)C(C)(C)OC(C)(C)C1=O` [Example A-146], the pest or weed control at 250 g/ha in the assay on Lolium perenne (LOLPE) [1] is 20%; in assay [2] it was 30%; in the assay on Avena fatua (AVEFA) [3], 30%; in assay [4], 70%; with Lolium perenne (LOLPE) [5] it was 0%; in assay [6], 10%. Moreover, the pest or weed control at 250 g/ha in the assay on Avena fatua (AVEFA) [7] worked out at 0%; in assay [8] it was 10%.

With `CCc1ccc(Oc2ccc([N+](=O)[O-])c(Cl)c2)cc1C1=C(O)CC(C)(C)CC1=O` [Example A-284], the pest or weed control at 250 g/ha was 60% in the assay on Lolium perenne (LOLPE) [1]; 60% in assay [2]; 0% with Avena fatua (AVEFA) [3]; 100% in assay [4]; 70% in the assay with Lolium perenne (LOLPE) [5]; 60% in assay [6]. The results for the pest or weed control at 250 g/ha (in the assay with Avena fatua (AVEFA) [7]; in assay [8]) were 0% and 100%, respectively.

On to `CCc1ccc(Oc2ccc(Br)cc2F)cc1C1=C(O)CC2(CCOCC2)CC1=O` [Example A-25], for which the pest or weed control at 250 g/ha came out at 90% with Lolium perenne (LOLPE) [1]; 90% in assay [2]; 100% with Avena fatua (AVEFA) [3]; 100% in assay [4]; 80% with Lolium perenne (LOLPE) [5]; 70% in assay [6]. For the same compound, the pest or weed control at 250 g/ha with Avena fatua (AVEFA) [7] is 80%; in assay [8] it was 90%.

Consider `CCc1ccc(Oc2cccc(Br)c2)cc1C1=C(O)C(C)(C)OC(C)(C)C1=O` [Example A-32], for which the pest or weed control at 250 g/ha in the assay with Lolium perenne (LOLPE) [1] is 40%; in assay [2], 30%; in the assay with Avena fatua (AVEFA) [3], 20%; in assay [4], 100%; in the assay with Lolium perenne (LOLPE) [5], 80%; in assay [6], 30%. The figures for the pest or weed control at 250 g/ha (in the assay with Avena fatua (AVEFA) [7]; in assay [8]) were 20% and 90%, respectively.

On to `CCc1ccc(Oc2ccc3cc(Cl)ccc3n2)cc1C1=C(O)C(C)(C)OC(C)(C)C1=O` [Example A-159], for which the pest or weed control at 250 g/ha in the assay on Lolium perenne (LOLPE) [1] worked out at 100%; in assay [2], 80%; in the assay on Avena fatua (AVEFA) [3] it was 80%; in assay [4], 100%; in the assay with Lolium perenne (LOLPE) [5], 100%; in assay [6] it was 30%. Besides, the pest or weed control at 250 g/ha in the assay with Avena fatua (AVEFA) [7] was 40%; in assay [8] it was 90%.

`CCc1ccc(Oc2nc3cccc(C#N)c3s2)cc1C1=C(O)C(C)(C)OC(C)(C)C1=O` [Example A-220]: the pest or weed control at 250 g/ha in the assay with Lolium perenne (LOLPE) [1] was found to be 80%; in assay [2], 60%; in the assay with Avena fatua (AVEFA) [3] it was 30%; in assay [4] it was 100%; in the assay on Lolium perenne (LOLPE) [5] it was 10%; in assay [6], 10%. In addition, the figures for the pest or weed control at 250 g/ha (in the assay with Avena fatua (AVEFA) [7]; in assay [8]) were 0% and 30%, respectively.

The values above are taken from US8865623B2, “Herbicidally active cyclic diones and derivatives thereof, processes for their preparation, compositions, and method of controlling weeds” (Syngenta Limited, priority 2009, dated 2014).
